Data on 6 compounds can be found in patent EP0209274A2, “Furanone derivatives” (ELI LILLY AND COMPANY, priority 1985, dated 1987).

A word on the inhibition: it is the change of the read-out against control, counted positive when it falls. A low value points to a response near the control.

The structures appear in SMILES notation.

The target in one assay is T1, 5-Lipoxygenase (Cavia porcellus, UniProt A0A286X958).
T1 construct: The PMNL suspension was disrupted by five ½-second pulse sonication; from tissue; host or cells: guinea pig peritoneal polymorphonuclear leukocytes (30,000 x g supernatant of the sonicate)
T1 sequence (A0A286X958 1-674): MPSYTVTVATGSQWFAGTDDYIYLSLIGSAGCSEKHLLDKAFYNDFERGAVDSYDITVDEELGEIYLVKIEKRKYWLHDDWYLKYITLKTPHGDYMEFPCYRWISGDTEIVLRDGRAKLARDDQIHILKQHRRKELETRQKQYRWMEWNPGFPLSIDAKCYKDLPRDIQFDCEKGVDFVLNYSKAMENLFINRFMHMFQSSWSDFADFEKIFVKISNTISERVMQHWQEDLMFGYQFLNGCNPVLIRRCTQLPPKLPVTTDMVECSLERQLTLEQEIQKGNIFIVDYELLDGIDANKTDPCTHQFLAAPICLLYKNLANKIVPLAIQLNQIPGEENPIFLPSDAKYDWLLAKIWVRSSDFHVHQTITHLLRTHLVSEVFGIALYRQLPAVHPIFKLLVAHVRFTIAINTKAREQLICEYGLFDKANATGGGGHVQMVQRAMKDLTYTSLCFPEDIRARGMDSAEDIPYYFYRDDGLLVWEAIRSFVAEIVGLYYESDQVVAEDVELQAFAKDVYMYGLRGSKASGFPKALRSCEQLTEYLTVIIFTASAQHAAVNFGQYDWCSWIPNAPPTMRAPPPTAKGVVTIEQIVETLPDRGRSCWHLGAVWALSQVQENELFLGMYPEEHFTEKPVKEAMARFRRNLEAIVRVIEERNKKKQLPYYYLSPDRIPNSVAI
As to the kind of experiment: 5-Lipoxygenase (5-LPO) Assay. It is filed as biochemical, guinea pigs. The note with it: inhibition of 5-HETE formation; supernatant of guinea pig PMNL sonicate; read-out: 5-LPO IC50 (µg/ml) (converted). Here is the method: Ten milliliters of a 2% casein solution were injected intraperitoneally to guinea pigs weighing 250-300 gm. After 16-18 hours, the guinea pigs were killed by suffocation in a carbon dioxide chamber. The peritoneal cavity was infused with 70 ml of saline and 40-50 ml of the fluid were recovered from the cavity. After centrifugation, cell pellets were washed twice in Hank's balanced salt solution (HBSS) without calcium ion.
The cells were then suspended in 5 ml of sodium phosphate buffer, pH 7.1 containing 1 mM EDTA, and 0.1% gelatin. About 20-30 x 10^7 cells were obtained from one guinea pig.
The PMNL suspension was disrupted by five ½-second pulse sonication at the setting of 3 in a Branson Sonifier, Model 350, equipped with a microtip. The sonicates were combined and centrifuged at 30,000 x g for 10 minutes. The supernatant was kept frozen at -70°C until use.
. Enzyme activity was determined by assaying for 5-HETE formatiun by first incubating 0.2 ml of the supernatant obtained from the PMNL sonicate with the test compound, 1 mM CaCl2, 2 mM ATP, and 1 mM GSH for 5 minutes at 37°C. The mixture is treated with 5 pM ^14C-arachidonic acid and incubated at 37°C an additional 10 minutes. The enzyme reaction was then stopped by the addition of 10 µl of 1M citric acid and 10 µl of an alcohol solution containing 20 mg/ml each of indomethacin and butylated hydroxyanisole (BHA). The reaction mixture was spotted (50 µl) on a silica gel plate (Baker TLC plate S1250-PA-19C) and subjected to TLC in a solvent system of ethyl acetate/2,2,4-tri- methylpentane/glacial acetic acid/H20 (90:50:20:100).
The radioactivity of the arachidonic acid and its metabolites (5-HETE and LTB4) was visualized from a developed x-ray film which had been exposed to the TLC plate 1-2 days. The amount of 5-HETE formed was quanti- tated by scraping the silica gel area corresponding to the spot on the x-ray film, and the radioactivity determined in a Isocap/300 liquid scintillation counter (Searle Analytic, Inc.).
The percent inhibition of the formation of 5-HETE was determined for each concentration of test compound tested as compared to a control experiment wherein no test compound was added. The concentration and percent inhibition values were plotted on semi log paper and the concentration in which formation of 5-HETE is inhibited by 50% (ICso) was determined by interpolation.

Assay [1] deals with Pancreatic phospholipase A2 (Homo sapiens, UniProt P04054). In words: Phospholipase A2 (PLA2) Assay. It is filed as biochemical. The note with it: 30 µg/ml test compound; inhibition of 14C-free fatty acid formation. The protocol:
The assay buffer contained 10 mM Tris-HCl buffer, pH 8.0, 100 mM NaCl, 1 mM CaCl2 and 1 mg/ml of bovine serum albumin. A toluene-ethanol (1:1 v/v) solution of phosphatidiylcholine, L-a-dipalmitoyl-(2-palmitoyl-1-^14C) obtained from New England Nuclear was evaporated to dryness in a flask under nitrogen and the assay buffer was added to give a substrate concentration of 9.0 x 10^-5M (specific activity = 27.7 mCi/mmol). The mixture was sonicated for 5 minutes in a Bransonic 220 Sonication Bath. Pancreatic phospholipase A2 (specific activity = 600 units/mg) was diluted with the assay buffer to give an enzyme concentration of 0.1 mg/ml. […] To initiate the enzyme reaction, 0.1 ml of the mixture containing the substrate was added to the enzyme solution and the reaction mixture was further incubated for 30 minutes at 37°C. The reaction was then terminated by the addition of 20 µl of 1M citric acid.
Fifty µl of the mixture was added to 10 ml of scintillation fluid [5.88 g of 2,5-diphenyl-oxazole and 118 mg of 1,4-bis(5-phenyloxazol-2-yl)benzene] dissolved in 650 ml of toluene and 350 ml of Triton X-100) and the radioactivity was determined in an Isocap/300 liquid scintillation counter (Searle Analytic Inc., Southfield, Michigan). Another 50 µl of the mixture was applied directly onto the spotting area of a silica gel plate (LK6D, Whatman, Clifton, N.J.) and subjected to thin layer chromatography in a solvent system of ethyl acetate:acetic acid:2,2,4-trimethylpentane:H20 (90:20:50:100, v/v/v). The silica gel on the plate was scraped in 1 cm sections, suspended in 5 ml of the Triton X-100 based scintillation fluid and the radioactivity was determined. Phosphatidylcholine remained at the origin while fatty acids migrated to a few centimeters (2-3 cm) below the solvent front. The percent of ^14C-free fatty acid formed with the test compound added was calculated as compared to the amount formed in control experiments where no test compound was added. […]

The target of assay [2] is T2, fatty acid cyclooxygenase (Homo sapiens, UniProt P23219).
T2 construct: Microsomes were prepared from 185 bags of human platelets; from tissue; host or cells: human platelets (solubilized microsomes, then electrofocusing and Sephadex G-200)
In words: Fatty Acid Cyclooxygenase (FCO) Assay. It is filed as biochemical. As to conditions: 30 µg/ml test compound; inhibition of formation of PGE2; enzyme from human platelets. Here is the method:
Microsomes were prepared from 185 bags of human platelets (each bag containing the platelets from one pint of blood prepared using differential centrifugation procedures). The platelets from approximately 60 bags were prepared at one time. Platelet-rich plasma (500 g) was centrifuged at 10,000 x g for 20 minutes, and the platelet pellet was suspended in 100 ml of 0.1M. potassium phosphate buffer, pH 8.0, with a Teflon glass homogenizer and sonicated for 5.0 minutes with a Bronson Sonifier (Model 350) in a rosette flask cooled in ice water. Disrupted platelets were centrifuged 15 minutes at 10,000 x g. The supernatant was centrifuged at 100,000 x g for 90 minutes and the microsomal pellets were homogenized in 25 ml of 20% sucrose containing 1.0% Triton X-100 detergent. After 30 minutes at 4°C, the solubilized microsomes were centrifuged at 100,000 x g for 60 minutes. The yellow supernatant was removed and stored at -70°C.
The solubilized fatty acid cyclooxygenase was applied to a 440 ml electrofocusing column (LKB-8012) containing 1% phisolytes (Brinkman Instruments, Westburgh, NY), pH 2-11, with the cathode at the top of the column. The enzyme was layered onto the column at the appropriate time so that its sucrose concentration was equal to that of the column gradient. This was accomplished by checking the gradient concentration periodically with a sucrose hand refractometer. Electrofocusing was carried out for 16 hours with an initial voltage of 400 V and a final voltage of 900-1,000 volts. Fractions were collected (20 ml) and assayed for PGE2 formation. Active peak fractions were pooled and concentrated by ultrafiltration (XM 100A) to a volume of 3-5 ml.
Active fractions from electrofocusing were applied to a G-200 Sephadex column (2 cm x 46 cm) and eluted with 10 mM potassium phosphate buffer, pH 7.0, in 5 ml fractions. After assay, active fractions were pooled and concentrated to 1.0 ml by ultrafiltration (XM 100A), and kept frozen at -70°C.
Enzyme activity was determined by assaying for PGE2 formation by preincubating the enzyme with 10 mmol/l imidazole phosphate buffer, pH 8.0, 2 mmol/l epinephrine, 2 mmol/1 methemoglobin, and the test compound (30 pg/ml) in a total volume of 0.2 ml for one minute at 37°C. After preincubation, 5 mmol/1 ^14C-arachidonic acid were added and the mixture was incubated an additional 0.5 minutes at 37°C. The enzyme reaction was stopped by the addition of 20 µl of indomethacin (2 mg/ml) in alcohol.
The reaction mixture was spotted (50 pl) on a silica gel (LQ6D) plate and subjected to TLC. The solvent system consisted of chloroform-methanol-glacial acetic acid (90:5:5, v/v/v) and the relative mobilities were PGF2a = 0.235, and PGE2 = 0.47. The silica gel on the plate was scraped in 1 cm sections, suspended in 5 ml of the scintillation fluid [5.88 g of 2,5-diphenyl-oxazole and 118 mg of 1,4-bis(5-phenyloxazol-2-yl)benzene] dissolved in 650 ml of toluene and 350 ml of Triton X-100) and the radioactivity was determined in an Isocap/300 liquid scintillation counter (Searle Analytic, Inc., Southfield, MI). Another 50 µl of the mixture was added to 10 ml of the Triton X-100 based scintillation fluid, and the radioactivity was determined so that the amount of radioactivity recovery from the TLC plate could be ascertained. PGE2 formation for each test compound was determined as a percent of control experiments wherein no test compound was added. Data is expressed in Table I as the percent inhibition of formation of PGE2 at a test compound concentration of 30 pg/ml.

Chain of Pancreatic phospholipase A2 (P04054 23-148): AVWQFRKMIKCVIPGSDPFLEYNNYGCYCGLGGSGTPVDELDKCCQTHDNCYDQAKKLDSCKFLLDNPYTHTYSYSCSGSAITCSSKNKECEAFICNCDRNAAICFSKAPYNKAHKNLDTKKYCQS
T2 sequence (P23219 24-599): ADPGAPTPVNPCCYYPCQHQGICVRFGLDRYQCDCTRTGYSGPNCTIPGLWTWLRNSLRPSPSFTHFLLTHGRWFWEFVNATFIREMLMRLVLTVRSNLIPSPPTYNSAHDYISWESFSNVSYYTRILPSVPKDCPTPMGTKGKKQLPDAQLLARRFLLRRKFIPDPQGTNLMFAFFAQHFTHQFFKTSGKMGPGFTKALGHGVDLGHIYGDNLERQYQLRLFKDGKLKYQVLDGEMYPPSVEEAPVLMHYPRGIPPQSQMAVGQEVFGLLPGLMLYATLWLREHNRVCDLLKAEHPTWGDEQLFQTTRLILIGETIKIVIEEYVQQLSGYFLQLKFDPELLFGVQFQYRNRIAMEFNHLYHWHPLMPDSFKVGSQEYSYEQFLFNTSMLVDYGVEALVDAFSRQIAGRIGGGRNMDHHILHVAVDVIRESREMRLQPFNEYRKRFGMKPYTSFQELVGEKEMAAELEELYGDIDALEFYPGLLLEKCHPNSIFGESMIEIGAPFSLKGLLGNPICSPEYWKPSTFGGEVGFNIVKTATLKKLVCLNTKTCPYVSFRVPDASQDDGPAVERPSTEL

Regarding `CCCC/C=C\CCCCCCCCCCC1=CC(=O)OC1O` (stereo not drawn) [Example 21, (Z)-4-(11-hexadecenyl)-5-hydroxy-2(5H)-furanone], the IC50 at 5-Lipoxygenase was 93 µM. The compound further returned an inhibition at 30 µg/mL in assay [1] of 0%.
For `O=C1C=C(CCCCCOc2ccc3ccccc3c2)C(O)O1` (stereo not drawn) [Example 16, 5-Hydroxy-4-[5-(2-naphthalenyloxy)pentyl]-2(5H)-furanone], the IC50 at 5-Lipoxygenase was 9.6 µM. Also, testing at 30 µg/mL in assay [2] gave an inhibition of 27%.
Turning to `CCCCCC/C=C\CCCCCCCCC1=CC(=O)OC1O` (stereo not drawn) [Example 8, (Z)-4-(9-hexadecenyl)-5-hydroxy-2(5H)-furanone], the values for the inhibition at 30 µg/mL in assay [2] and in assay [1] were 21% and 36%, respectively.
In the same order, the values of `CCCCCCCC/C=C\CCCCCCCCCCC1=CC(=O)OC1O` (stereo not drawn) [Example 10, (Z)-4-(11-eicosenyl)-5-hydroxy-2(5H)-furanone] are 25% and 26%.
With `C=CCCCCCCCC1=CC(=O)OC1O` (stereo not drawn) [Example 7, 5-Hydroxy-4-(8-nonenyl)-2(5H)-furanone], the inhibition at 30 µg/mL is 23% in assay [2] and 0% in assay [1].
Take `O=C1C=C(CCCCOc2ccccc2Cc2ccccc2)C(O)O1` (stereo not drawn) [Example 17, 5-Hydroxy-4-[4-(2-benzylphenoxy)butyl]-2(5H)-furanone]: the IC50 on 5-Lipoxygenase is 8.87 µM. The compound further returned an inhibition at 30 µg/mL in assay [2] of 12%.
